Measurements published in US7795261B2, “Substituted 1-piperidin-4-yl-4-pyrrolidin-3-yl-piperazine derivatives and their use as neurokinin antagonists” (Janssen Pharmaceutica NV, priority 2002, dated 2010).

Assays:
Format in all cases: cell-based
NK3 = target: T1, NK3 (Homo sapiens, UniProt P29371); test: Signal transduction (ST), intracellular Ca++ (FLIPR), NK3; conditions: read-out: pIC50 NK3 (converted)
T1 sequence (P29371 1-465): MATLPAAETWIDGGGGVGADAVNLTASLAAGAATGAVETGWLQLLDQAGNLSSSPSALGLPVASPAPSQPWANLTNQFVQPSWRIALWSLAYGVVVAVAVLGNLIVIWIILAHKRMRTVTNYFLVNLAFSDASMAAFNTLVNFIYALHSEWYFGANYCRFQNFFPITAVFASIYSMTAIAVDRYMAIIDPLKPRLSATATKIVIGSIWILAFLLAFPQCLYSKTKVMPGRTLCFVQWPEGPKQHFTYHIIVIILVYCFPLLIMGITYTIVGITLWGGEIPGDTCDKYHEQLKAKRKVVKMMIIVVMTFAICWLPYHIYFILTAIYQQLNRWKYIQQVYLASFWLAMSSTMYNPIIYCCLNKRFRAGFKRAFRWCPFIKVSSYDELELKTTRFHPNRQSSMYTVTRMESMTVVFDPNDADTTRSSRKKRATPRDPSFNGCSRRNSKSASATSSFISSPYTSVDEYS

NK2 = target: T2, NK2 (Homo sapiens, UniProt P21452); test: Signal transduction (ST), intracellular Ca++ (FLIPR), NK2; conditions: read-out: pIC50 NK2 (converted)
T2 sequence (P21452 1-398): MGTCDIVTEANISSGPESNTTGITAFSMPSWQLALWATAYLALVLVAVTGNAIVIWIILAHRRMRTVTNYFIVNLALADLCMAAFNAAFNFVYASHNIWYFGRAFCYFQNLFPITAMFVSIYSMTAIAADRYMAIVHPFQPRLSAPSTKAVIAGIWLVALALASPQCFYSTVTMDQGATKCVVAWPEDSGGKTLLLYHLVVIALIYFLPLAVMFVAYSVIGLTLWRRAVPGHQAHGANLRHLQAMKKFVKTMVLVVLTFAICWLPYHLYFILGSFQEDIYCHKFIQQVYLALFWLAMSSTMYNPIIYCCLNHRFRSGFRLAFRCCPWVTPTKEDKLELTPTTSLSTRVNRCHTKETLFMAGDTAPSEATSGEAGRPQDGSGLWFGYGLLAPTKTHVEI
Method: [The procedure below names another target; the source lists this target under the same test.] This test evaluates in vitro functional NK1 antagonistic activity. For the measurements of intracellular Ca^++ concentrations the cells were grown on 96-well (black wall/transparent bottom) plates from Costar for 2 days until they reached confluence. The cells were loaded with 2 μM Fluo3 in DMEM containing 0.1% BSA and 2.5 mM probenecid for 1 h at 37° C. They were washed 3× with a Krebs buffer (140 mM NaCl, 1 mM MgCl2×6H2O, 5 mM KCl, 10 mM glucose, 5 mM HEPES; 1.25 mM CaCl2; pH 7.4) containing 2.5 mM probenecid and 0.1% BSA (Ca^++-buffer). The cells were preincubated with a concentration range of antagonists for 20 min at RT and Ca^++-signals after addition of the agonists were measured in a Fluorescence Image Plate Reader (FLIPR from Molecular Devices, Crawley, England). The peak of the Ca^++-transient was considered as the relevant signal and the mean values of corresponding wells were analysed as described below.
The sigmoidal dose response curves were analysed by computerised curve-fitting, using the GraphPad Program. […] For antagonist responses the IC50-value was calculated using non-linear regression.
The last columns indicates—without being limited therefore—for which the compounds might be most suitable. Of course, since for some neurokinin receptors no data was determined, it is obvious that these compounds might be attributed to another suitable use.

NK1 = NK1 (Homo sapiens, UniProt P25103); test: Signal transduction (ST), intracellular Ca++ (FLIPR), NK1 antagonistic activity; conditions: read-out: pIC50 NK1 (converted)
Method in brief: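 Antagonist IC50 was fitted by non-linear regression of peak intracellular Ca++ signals measured on FLIPR after agonist challenge. Beforehand, Fluo3-loaded confluent cells received antagonists over a concentration range for 20 min at room temperature in Ca++ Krebs buffer, pH 7.4.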

NK1, sequence (P25103 whole entry): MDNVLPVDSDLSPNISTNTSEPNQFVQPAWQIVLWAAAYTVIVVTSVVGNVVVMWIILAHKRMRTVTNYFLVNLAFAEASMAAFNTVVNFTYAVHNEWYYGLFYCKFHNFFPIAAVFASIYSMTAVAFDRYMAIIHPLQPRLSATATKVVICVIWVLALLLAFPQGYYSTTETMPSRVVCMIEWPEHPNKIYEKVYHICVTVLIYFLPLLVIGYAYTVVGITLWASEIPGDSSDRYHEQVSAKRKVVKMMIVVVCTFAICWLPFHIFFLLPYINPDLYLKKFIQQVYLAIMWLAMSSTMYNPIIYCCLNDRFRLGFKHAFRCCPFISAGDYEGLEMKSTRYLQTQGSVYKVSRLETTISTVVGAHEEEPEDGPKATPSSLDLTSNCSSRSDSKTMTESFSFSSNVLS

Compound | IC50 (NK3) [nM] | IC50 (NK2) [nM] | IC50 (NK1) [nM]
O=C(c1ccsc1)N1CCC(N2CCN(C3CCN(C(=O)c4cc(C(F)(F)F)cc(C(F)(F)F)c4)C(Cc4ccccc4)C3)CC2)C1 (single isomer, unassigned) [Compound 40] | 126 | 2510 | 7.94
O=C(C1CC1)N1CCC(N2CCN(C3CCN(C(=O)c4cc(C(F)(F)F)cc(C(F)(F)F)c4)C(Cc4ccccc4)C3)CC2)C1 (single isomer, unassigned) [Compound 71] | 794 | 5010 | 20
O=C(c1ccccc1Cl)N1CCC(N2CCN(C3CCN(C(=O)c4cc(C(F)(F)F)cc(C(F)(F)F)c4)C(Cc4ccccc4)C3)CC2)C1 (single isomer, unassigned) [Compound 159] | 631 | 6310 | 20
O=C(c1ccccc1Cl)N1CCC(N2CCN(C3CCN(C(=O)c4cc(C(F)(F)F)cc(C(F)(F)F)c4)C(Cc4ccc(F)c(F)c4)C3)CC2)C1 (single isomer, unassigned) [Compound 211] | 200 | 1000 | 6.31
O=C(C1CCOC1)N1CCC(N2CCN(C3CCN(C(=O)c4cc(C(F)(F)F)cc(C(F)(F)F)c4)C(Cc4ccccc4)C3)CC2)C1 (single isomer, unassigned) [Compound 216] | 1580 | 5010 | 10
O=C(c1cccs1)N1CCC(N2CCN(C3CCN(C(=O)c4cc(C(F)(F)F)cc(C(F)(F)F)c4)C(Cc4ccc(F)c(F)c4)C3)CC2)C1 (single isomer, unassigned) [Compound 232] | 126 | 3160 | 6.31
O=C(c1ccsc1)N1CCC(N2CCN(C3CCN(C(=O)c4cc(C(F)(F)F)cc(C(F)(F)F)c4)C(Cc4ccc(F)c(F)c4)C3)CC2)C1 (single isomer, unassigned) [Compound 238] | 158 | 1260 | 6.31
O=C(c1c(Cl)cccc1Cl)N1CCC(N2CCN(C3CCN(C(=O)c4cc(C(F)(F)F)cc(C(F)(F)F)c4)C(Cc4ccc(F)c(F)c4)C3)CC2)C1 (single isomer, unassigned) [Compound 239] | 251 | 1000 | 10
O=C(C1CCOC1)N1CCC(N2CCN(C3CCN(C(=O)c4cc(C(F)(F)F)cc(C(F)(F)F)c4)C(Cc4ccc(Cl)c(Cl)c4)C3)CC2)C1 (single isomer, unassigned) [Compound 249] | 5010 | 5010 | 50.1
O=C(C1CC1)N1CCC(N2CCN(C3CCN(C(=O)c4cc(C(F)(F)F)cc(C(F)(F)F)c4)C(Cc4ccc(F)c(F)c4)C3)CC2)C1 (single isomer, unassigned) [Compound 252] | 501 | 1000 | 10
Cc1nnsc1C(=O)N1CCC(N2CCN(C3CCN(C(=O)c4cc(C(F)(F)F)cc(C(F)(F)F)c4)C(Cc4ccc(F)c(F)c4)C3)CC2)C1 (single isomer, unassigned) [Compound 253] | 501 | 398 | 5.01
O=C(c1cccs1)N1CCC(N2CCN(C3CCN(C(=O)c4cc(C(F)(F)F)cc(C(F)(F)F)c4)C(Cc4ccc(F)c(F)c4)C3)CC2)C1 (single isomer, unassigned) [Compound 254] | 501 | 251 | 10
O=C(c1ccsc1)N1CCC(N2CCN(C3CCN(C(=O)c4cc(C(F)(F)F)cc(C(F)(F)F)c4)C(Cc4ccc(F)c(F)c4)C3)CC2)C1 (single isomer, unassigned) [Compound 257] | 631 | 316 | 10
O=C(c1ccoc1)N1CCC(N2CCN(C3CCN(C(=O)c4cc(C(F)(F)F)cc(C(F)(F)F)c4)C(Cc4ccc(F)c(F)c4)C3)CC2)C1 (single isomer, unassigned) [Compound 258] | 398 | 501 | 12.6
O=C(c1cnccn1)N1CCC(N2CCN(C3CCN(C(=O)c4cc(C(F)(F)F)cc(C(F)(F)F)c4)C(Cc4ccc(F)c(F)c4)C3)CC2)C1 (single isomer, unassigned) [Compound 259] | 501 | 2000 | 12.6
Cn1cccc(C(=O)N2CCC(N3CCN(C4CCN(C(=O)c5cc(C(F)(F)F)cc(C(F)(F)F)c5)C(Cc5ccc(F)c(F)c5)C4)CC3)C2)c1=O (single isomer, unassigned) [Compound 260] | 3980 | 398 | 15.8
O=C(C1CCOC1)N1CCC(N2CCN(C3CCN(C(=O)c4cc(C(F)(F)F)cc(C(F)(F)F)c4)C(Cc4ccc(F)c(F)c4)C3)CC2)C1 (single isomer, unassigned) [Compound 269] | 6310 | 2510 | 3.98
O=C(C1CCOC1)N1CCC(N2CCN(C3CCN(C(=O)c4cc(C(F)(F)F)cc(C(F)(F)F)c4)C(Cc4ccc(F)c(F)c4)C3)CC2)C1 (single isomer, unassigned) [Compound 270] | 1260 | 2000 | 3.16
O=C(C1CCOC1)N1CCC(N2CCN(C3CCN(C(=O)c4cc(C(F)(F)F)cc(C(F)(F)F)c4)C(Cc4ccc(F)c(F)c4)C3)CC2)C1 (single isomer, unassigned) [Compound 281] | 3160 | 3980 | 5.01
O=C(C1CCOC1)N1CCC(N2CCN(C3CCN(C(=O)c4cc(C(F)(F)F)cc(C(F)(F)F)c4)C(Cc4ccc(F)c(F)c4)C3)CC2)C1 (single isomer, unassigned) [Compound 285] | 631 | 3160 | 6.31
O=C(C1CCOC1)N1CCC(N2CCN(C3CCN(C(=O)c4cc(C(F)(F)F)cc(C(F)(F)F)c4)C(Cc4ccc(Cl)c(Cl)c4)C3)CC2)C1 (single isomer, unassigned) [Compound 290] | 398 | 1580 | 3.98
O=C(C1CCOC1)N1CCC(N2CCN(C3CCN(C(=O)c4cc(C(F)(F)F)cc(C(F)(F)F)c4)C(Cc4ccc(Cl)c(Cl)c4)C3)CC2)C1 (single isomer, unassigned) [Compound 330] | 398 | 631 | 3.16
O=C(C1CCOC1)N1CCC(N2CCN(C3CCN(C(=O)c4cc(C(F)(F)F)cc(C(F)(F)F)c4)C(Cc4ccc(Cl)c(Cl)c4)C3)CC2)C1 (single isomer, unassigned) [Compound 331] | 251 | 2000 | 3.16
O=C(C1CCCCC1)N1CCC(N2CCN(C3CCN(C(=O)c4cc(C(F)(F)F)cc(C(F)(F)F)c4)C(Cc4ccc(F)c(F)c4)C3)CC2)C1 (single isomer, unassigned) [Compound 357] | 794 | 3160 | 10
CC(C)(C)C(=O)N1CCC(N2CCN(C3CCN(C(=O)c4cc(C(F)(F)F)cc(C(F)(F)F)c4)C(Cc4ccc(F)c(F)c4)C3)CC2)C1 (single isomer, unassigned) [Compound 364] | 631 | 2000 | 7.94
CC(C)(C)C(=O)N1CCC(N2CCN([C@@H]3CCN(C(=O)c4cc(C(F)(F)F)cc(C(F)(F)F)c4)[C@H](Cc4ccc(F)c(F)c4)C3)CC2)C1 (single isomer, unassigned) [Compound 365] | 501 | 2510 | 7.94
Cn1cccc1C(=O)N1CCC(N2CCN(C3CCN(C(=O)c4cc(C(F)(F)F)cc(C(F)(F)F)c4)C(Cc4ccc(F)c(F)c4)C3)CC2)C1 (single isomer, unassigned) [Compound 366] | 100 | 2000 | 6.31
